From patent publication US20240426776A1, “RAPID DIFFERENTIATION OF ANTIBIOTIC-SUSCEPTIBLE AND -RESISTANT BACTERIA THROUGH MEDIATED EXTRACELLULAR ELECTRON TRANSFER” (priority 2021, published 2024)
Values after ≈ are worked out from the molar mass of the structure shown. Values joined by “and” are separate entries in the source; they are usually repeats but may differ in a detail not shown here. Equal entries are not always repeated. Where two headings read alike, the source gives them in different places.

Assays:
[1] = test system: Acinetobacter baumannii (strains 35, 78, 83, and 102); assay: READAS electrochemical current response with PMS mediator (ASIn); type: cell-based; settings: for ASIn (antibiotic susceptibility index), single replicates: ASI2, 15 μM PMS, 0.1 OD600
Method: (§1) For initial quality control, cyclic voltammetry scan was recorded from 0.5 V to −0.5 V then back to 0.5 V using the potentiostat 13 configuration. The potentiostat controls the working electrode voltage relative to the reference electrode.
(§2) For antibiotic susceptibility experiments, the working electrode 6 was controlled at 0 VAg/AgCl. The current can also be measured and analyzed for determining resistance/susceptibility of pathogens to drugs (e.g., antibiotics) using other devices such as a multiplexer or any interface instrument that can receive one or more data inputs and forward it to an output for analysis and feedback. In particular, such one or more data inputs can be directed to a processor, signal processor, computer-based system, etc. and thereafter/correspondingly any such interface instrument can receive instructions from, such processing instruments as better detailed in the description for the embodiment of FIG. 14 below. It is also to be noted that any induced currents undergo a decision methodology that can be interpreted by such a configured processor, signal processor, computer-based system, etc. for aiding in the determination of antibiotic susceptibility/resistance, such as, the methodology better detailed in the description of FIG. 6 below.
(§3) Turning back to the discussion for FIG. 1B but also FIG. 1A, an initial baseline was established in the MH media, PMS, and antibiotic mixture for 50-60 min before inoculating the electrochemical cell with a bacteria cell 2. On placing the bacteria cell 2 (again see FIG. 1A) into the electrochemical cell 10, the bacteria cell 2 undergoes metabolic reactions and generates electrons 4 through metabolic processes, as was generally described above. The electron transfer mediator used herein, e.g., PMS, thereafter, operates as an electron carrier in solution 3, and provides generated electrons 4 to the working electrode 6 (herein was aided by stirring mechanism 21, as shown in FIG. 1B). The working electrode 6 thus accepts the electrons provided by the reduced mediators (PMSr) so as to generate currents and returns the mediator back to its oxidized form ([…]) to keep the monitoring of respiration induced currents if viable.
(§4) Tests disclosed in the example embodiments herein for the purpose of illustration were conducted with an inoculum of 0.1 OD600. A cell density equating to 0.1 OD600 was determined for each species by serial dilution. Briefly, overnight cultures were adjusted to an OD600 of 0.1 and then serially diluted (10^0 to 10^−11) in a multi-well plate before transferring 10 μL of each dilution to separate TSA plates and grown overnight for 16-18 h. The colony forming units per mL (CFU/mL) were quantified using a drop plate method as known to those skilled in the art. Each measurement was replicated at least four times.
(§5) For performing example experimental tests disclosed in the embodiments herein for further reduction to practice, an overnight culture of the bacteria utilized was prepared. Such a culture was prepared by transferring, for example, two colonies from an agar streak plate into 8-ml MH broth and cultured overnight in an air incubator (37° C.) rotating at 120 rpm for 16-18 h. A 5-ml aliquot of culture was adjusted to 0.5 OD600 with fresh MH media and then centrifuged at 6000 rpm (4185×g) for 8 min and the supernatant decanted. The pellet was then resuspended in 5-mL of 30° C. (S. aureus experiments) or 37° C. (all others) MH media. After resuspension, 2 mL of the culture was used to verify optical density. Finally, 500 μL of the culture was inoculated to the electrochemical cuvettes by pipette through the cap inoculation port (2.5-ml final volume in the cuvette).
It is to be noted that a CLSI resistance breakpoint concentration is a defined concentration of a susceptible antibiotic that treats the bacteria. […]

[2] = test system: Klebsiella pneumoniae (strains 34 and 115); assay: microbe, parasite or virus in culture; settings: for MIC: Klebsiella pneumoniae, MH media, 16-18 h, 37° C.
Method: (§6) Testing for S. aureus susceptibility to oxacillin differed with incubation at 30° C. for 18-24 h in MH media supplemented with 2% NaCl.
(§7) Values listed in Table 2 below include the estimated minimum inhibitory concentration from this study (μg/mL), the determination of(S) sensitive or (R) resistant microbes according to CLSI criteria, and the CLSI guidelines (μg/mL) for the species being tested. Empty cells were not evaluated.

[3] = test system: Escherichia coli (strains 61 and 77); assay: Microdilution antibiotic susceptibility assay (MIC, CLSI guidelines); type: cell-based; settings: for MIC: Escherichia coli, MH media, 16-18 h, 37° C., read-out: estimated minimum inhibitory concentration from this study
Method: as §6, §7

[4] = test system: Acinetobacter baumannii (strains 35, 78, 83, and 102); assay: as above; type: cell-based; settings: for MIC: Acinetobacter baumannii, MH media, 16-18 h, 37° C., read-out: estimated minimum inhibitory concentration from this study
Method: as §6, §7

[5] = test system: Klebsiella pneumoniae (strains 34 and 115); settings: for ASIn (antibiotic susceptibility index), single replicates: imipenem 20× breakpoint (80 μg/mL), ASI20, 15 μM PMS, 0.1 OD600
Method: as §1, §2
Turning back to the discussion for FIG. 1B but also FIG. 1A, an initial baseline was established in the MH media, PMS, and antibiotic mixture for 50-60 min before inoculating the electrochemical cell with a bacteria cell 2. On placing the bacteria cell 2 (again see FIG. 1A) into the electrochemical cell 10, the bacteria cell 2 undergoes metabolic reactions and generates electrons 4 through metabolic processes, as was generally described above. […]
Tests disclosed in the example embodiments herein for the purpose of illustration were conducted with an inoculum of 0.1 OD600. A cell density equating to 0.1 OD600 was determined for each species by serial dilution. […] The colony forming units per mL (CFU/mL) were quantified using a drop plate method as known to those skilled in the art. […]

[6] = test system: Escherichia coli (strains 61 and 77); assay: READAS electrochemical current response with PMS mediator (ASIn); type: cell-based; settings: for ASIn (antibiotic susceptibility index), single replicates: ASI2, 15 μM PMS, 0.1 OD600
Method: as §1, §2, §3, §4, §5
The magnitude of the current response was defined as the current magnitude at the inflection point between the exponential growth and the saturated current response.

[7] = test system: Acinetobacter baumannii (strains 35, 78, 83, and 102); settings: cited from earlier work
[8] = test system: Staphylococcus aureus (strains 29213 and 43300); assay: Microdilution antibiotic susceptibility assay (MIC, CLSI guidelines); type: cell-based; settings: for MIC: Staphylococcus aureus, MH media, oxacillin: 30° C., 18-24 h, 2% NaCl, read-out: estimated minimum inhibitory concentration from this study
Method: as §6, §7

[9] = strain 78 (resistant), imipenem 2×CLSI resistance breakpoint
[10] = strain 102 (susceptible), imipenem 2×CLSI resistance breakpoint

Q: What does the source list for `C[C@@H](O)[C@H]1C(=O)N2C(C(=O)O)=C(SCCN=CN)C[C@H]12` [Imipenem, imipenem]?
A: average ASI2 (average±SE) [1, 9]: 0.02±0.13; ASIn (antibiotic susceptibility index), single replicates [1, 9]: 0.04 and −0.5 and 0.24 and 0.19 and 0.16; average ASI2 (average±SE) [1, 10]: 0.47±0.08; ASIn (antibiotic susceptibility index), single replicates [1, 10]: 0.37 and 0.36 and 0.67 and 0.31 and 0.65; MIC ([2]; read-out: estimated minimum inhibitory concentration from this study, strain 34): 2 µg/mL (≈ 6.68 µM); MIC ([2]; read-out: estimated minimum inhibitory concentration from this study, strain 115): 64 µg/mL (≈ 214 µM); sensitive or resistant according to CLSI criteria ([2]; strain 34): S; sensitive or resistant according to CLSI criteria ([2]; strain 115): R; MIC ([3]; strain 61): 32 µg/mL (≈ 107 µM); MIC ([3]; strain 77): 0.5 µg/mL (≈ 1.67 µM); sensitive or resistant according to CLSI criteria ([3]; strain 61): R; sensitive or resistant according to CLSI criteria ([3]; strain 77): S; MIC ([4]; strain 78): 32 µg/mL (≈ 107 µM); MIC ([4]; strain 102): 1 µg/mL (≈ 3.34 µM); sensitive or resistant according to CLSI criteria ([4]; strain 78): R; sensitive or resistant according to CLSI criteria ([4]; strain 102): S; ASIn (antibiotic susceptibility index), single replicates ([5]; strain 34 (susceptible)): 0.56 and 0.88 and 0.67 and 0.58; average ASI20 (±SE) ([5]; strain 115 (resistant), imipenem 20× (80 μg/mL)): 0.28±0.08; ASIn (antibiotic susceptibility index), single replicates ([5]; strain 115 (resistant)): 0.32 and 0.47 and 0.18 and 0.17; average ASI2 (±SE) ([6]; strain 61 (resistant), imipenem 2× (8 μg/mL)): −0.20±0.45; ASIn (antibiotic susceptibility index), single replicates ([6]; strain 61 (resistant), imipenem 2× breakpoint (8 μg/mL)): 0.26 and −1.52 and 0.52 and −0.08; average ASI2 (±SE) ([6]; strain 77 (susceptible), imipenem 2× (8 μg/mL)): 0.86±0.11; ASIn (antibiotic susceptibility index), single replicates ([6]; strain 77 (susceptible), imipenem 2× breakpoint (8 μg/mL)): 0.98 and 0.97 and 0.96 and 0.54

Q: With `NC[C@H]1O[C@H](O[C@H]2[C@H](O)[C@@H](O[C@H]3O[C@H](CO)[C@@H](O)[C@H](N)[C@H]3O)[C@H](N)C[C@@H]2N)[C@H](N)C[C@@H]1O` [Tobramycin, tobramycin] as the compound, how does the “average ASI2 (average±SE)” value ([1]; strain 35 (susceptible), tobramycin 2×CLSI resistance breakpoint) read?
A: The value was 0.63±0.13.

Q: And the “ASIn (antibiotic susceptibility index), single replicates” value (from here on “ASIn (antibiotic susceptibility index)”) ([1]; strain 35 (susceptible), tobramycin 2×CLSI resistance breakpoint (32 μg/mL))?
A: Its value is 0.48 and 1 and 0.4 and 0.64.

Q: And the “ASIn (antibiotic susceptibility index)” value ([1]; strain 35 (susceptible), tobramycin 2×CLSI resistance breakpoint (32 μg/mL), listed as tobramycin)?
A: Its value is 0.5.

Q: What about the “average ASI2 (average±SE)” value ([1]; strain 83 (resistant), tobramycin 2×CLSI resistance breakpoint) of the same compound?
A: Its value is 0.08±0.06.

Q: And the “ASIn (antibiotic susceptibility index)” value ([1]; strain 83 (resistant), tobramycin 2×CLSI resistance breakpoint (32 μg/mL))?
A: The value was −0.06 and −0.08 and 0.17 and 0.09 and 0.26.

Q: What about the “ASIn (antibiotic susceptibility index)” value ([1]; strain 83 (resistant), tobramycin 2×CLSI resistance breakpoint (32 μg/mL), listed as tobramycin) of the same compound?
A: Its value is 0.3.

Q: What about the “decrease in current compared to the control” value ([1]; susceptible strain (35), tobramycin 2×CLSI resistance breakpoint, 32 μg/mL, FIG. 4A) of the same compound?
A: Its value is 50%.

Q: And the “CLSI guidelines (resistance breakpoint) for the species” value [7]?
A: Its value is 16 µg/mL.

Q: What about the MIC ([3]; strain 61) of the same compound?
A: The MIC was 16 µg/mL (≈ 34.2 µM).

Q: And the MIC ([3]; strain 77)?
A: The MIC was 0.5 µg/mL (≈ 1.07 µM).

Q: What about the “sensitive or resistant according to CLSI criteria” value (“sensitive or resistant according” for short) ([3]; strain 61) of the same compound?
A: The value was “R”.

Q: What about the “sensitive or resistant according” value ([3]; strain 77) of the same compound?
A: Its value is “S”.

Q: What about the MIC ([8]; strain 29213) of the same compound?
A: The MIC was 1 µg/mL (≈ 2.14 µM).

Q: What about the MIC ([8]; strain 43300) of the same compound?
A: Its MIC is 128 µg/mL (≈ 274 µM).

Q: What about the “sensitive or resistant according” value ([8]; strain 29213) of the same compound?
A: Its value is “S”.

Q: And the “sensitive or resistant according” value ([8]; strain 43300)?
A: Its value is “R”.

Q: What about the MIC ([4]; strain 35) of the same compound?
A: The MIC was 0.5 µg/mL (≈ 1.07 µM).

Q: What about the MIC ([4]; strain 83) of the same compound?
A: The MIC was 128 µg/mL (≈ 274 µM).

Q: And the “sensitive or resistant according” value ([4]; strain 35)?
A: Its value is “S”.

Q: And the “sensitive or resistant according” value ([4]; strain 83)?
A: The value was “R”.

Q: What about the “average ASI2 (±SE)” value ([6]; strain 61 (resistant), tobramycin 2× (32 μg/mL)) of the same compound?
A: Its value is 0.17±0.1.

Q: And the “ASIn (antibiotic susceptibility index)” value ([6]; strain 61 (resistant), tobramycin 2× breakpoint (32 μg/mL))?
A: Its value is 0.23 and 0.15 and 0.47 and 0.16 and −0.16.

Q: What about the “average ASI2 (±SE)” value ([6]; strain 77 (susceptible), tobramycin 2× (32 μg/mL)) of the same compound?
A: Its value is 0.62±0.15.

Q: And the “ASIn (antibiotic susceptibility index)” value ([6]; strain 77 (susceptible), tobramycin 2× breakpoint (32 μg/mL))?
A: Its value is 0.92 and 0.4 and 0.86 and 0.33.
